From patent publication EP1538162B1, “Compositions for altering mucus secretion” (NORTH CAROLINA STATE UNIVERSITY, priority 1999, dated 2000)

Legend:
[1] = target: T1, cGMP-dependent protein kinase type 1α (PKG-1α) (Homo sapiens, UniProt Q13976); assay: PKG activity in NHBE cells; format: cell-based; conditions: 100 µM
T1 construct: NHBE cells also contained substantial amounts of cGMP-dependent protein kinase type 1α (PKG-1α) activity; endogenous in cells; host or cells: primary normal human bronchial epithelial (NHBE) cells, Clonetics
T1 sequence (Q13976 1-671): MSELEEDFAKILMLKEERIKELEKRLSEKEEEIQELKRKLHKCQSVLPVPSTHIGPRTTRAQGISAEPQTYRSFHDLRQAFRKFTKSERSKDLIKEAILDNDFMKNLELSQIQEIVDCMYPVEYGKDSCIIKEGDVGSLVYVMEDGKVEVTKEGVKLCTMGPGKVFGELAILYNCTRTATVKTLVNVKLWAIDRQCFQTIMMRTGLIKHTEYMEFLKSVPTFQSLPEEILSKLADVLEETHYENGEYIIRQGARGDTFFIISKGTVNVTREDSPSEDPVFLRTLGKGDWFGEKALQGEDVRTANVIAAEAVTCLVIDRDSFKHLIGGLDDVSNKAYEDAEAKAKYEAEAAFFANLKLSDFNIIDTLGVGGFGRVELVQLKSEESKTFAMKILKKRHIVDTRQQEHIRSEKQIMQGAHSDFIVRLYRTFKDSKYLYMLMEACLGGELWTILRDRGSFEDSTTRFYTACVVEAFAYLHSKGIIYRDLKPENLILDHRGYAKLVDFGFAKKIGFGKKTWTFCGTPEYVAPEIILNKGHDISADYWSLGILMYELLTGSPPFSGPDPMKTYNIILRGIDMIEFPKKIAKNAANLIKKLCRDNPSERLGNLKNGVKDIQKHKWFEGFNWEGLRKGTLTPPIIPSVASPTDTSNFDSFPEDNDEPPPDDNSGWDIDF
Description: (§1) Phosphorylation of MARCKS by PMA was attenuated by Calphostin C (500 nM). NHBE cells also contained substantial amounts of cGMP-dependent protein kinase type 1α (PKG-1α) activity, which was localized to the cytosolic fraction. […] In addition, the phosphorylation of MARCKS induced by PMA was reversed by incubation with 8-Br-cGMP (10 µM).

[2] = test system: normal human bronchial epithelial (NHBE) cells; assay: UTP-induced mucin secretion, air-liquid interface culture, mucus ELISA; format: cell-based; conditions: for mucin secretion in cells stimulated by secretagogues: general statement, Example 9: 15 min pre-incubation, UTP 0.1 mM 2 hours, 500 nM calphostin C, 10 µM Rp-8-Br-PET-cGMP, 50 µM LY83583
Description: (§2) Cell Culture System: Expansion and cryopreservation. Primary normal human bronchial epithelial (NHBE) cells (Clonetics, San Diego, CA) were seeded into vented T75 tissue culture flasks (500 cells/cm^2) in bronchial epithelial basal medium (BEBM; Clonetics, San Diego, CA) containing 25 ng/ml human recombinant epidermal growth factor (EGF; Intergen, Purchase, NY), 65 ng/ml bovine pituitary extract (prepared by the methods of Bertolero et al. Exp Cell Res 155:64, 1984), 5 x 10^-8M all-trans retinoic acid, 1.5µg/ml bovine serum albumin (Intergen, Purchase, NY), 20 IU/ml nystatin (Gibco, Grand Island, NY), 0.5µg/ml hydrocortisone, 5µg/ml insulin, 10µg/ml transferrin, 0.5µg/ml epinephrine, 6.5ng/ml triiodothyronine, 50µg/ml gentamicin, and 50µg/ml amphotericin-B (Clonetics; San Diego, CA). Once confluent, cultures were dissociated with trypsin/EDTA and frozen as passage-2 according to the methods of Clonetics Corporation.
Air-liquid interface culture of NHBE cells. Following the expansion, NHBE cells were cultured in air/liquid interface according to the methods of Gray and coworkers with minor modifications (Gray et al. Am J Respir Cell Mol Biol 14:104, 1996). The air-liquid interface culture was initiated by seeding NHBE cells (passage-2, 2x10^4 cells/cm^2) on Transwell-clear culture inserts (24.5 mm, 0.45 µm pore size; Costar, Cambridge, MA) that were thin coated with rat tail collagen, type I (Collaborative Research, Bedford, MA). Cells were cultured submerged to 70% confluency (5-7 days) in a 1:1 mixture of bronchial epithelial cell growth medium (Clonetics, San Diego, CA):Dulbecco's modified Eagles medium with high glucose (BEGM:DMEM-H), containing the same supplements as described above with the exception of EGF (0.5 ng/ml). When cultures were 70% confluent, the air-liquid interface was created by removing the apical medium, and the basal medium (BEGM:DMEM-H) was changed daily thereafter. Cells were then cultured for an additional 14 days in air-liquid interface, a total of 21 days in culture.
(§3) Mucus ELISA: Mucus secreted from the airway epithelial cells in vitro after stimulation by activators was assessed using an ELISA (antibody capture method) (E. Harlow, D. Lane. "Antibodies: A Laboratory Manual." New York: Cold Spring Harbor Laboratory Press, 1988), wherein the collected mucus is bound directly to the ELISA plate. Mucus was detected using an antibody raised against monkey airway mucus (Lin et al. Am J Respir Cell Mol Biol 1:41, 1989). […]
NHBE cells were pre-incubated with the indicated inhibitor for 15 min, then stimulated with UTP (0.1mM) for 2 hours. Secreted mucin in the apical medium was collected and assayed by ELISA.

[3] = test system: MARCKS; assay: Phosphorylation state of MARCKS in airway epithelial cells; format: cell-based, human
Description: To detect MARCKS protein in these cells, cells were labeled with ^3H-myristic acid (as MARCKS is myristoylated) for 16 hours in media. Cells were lysed, and MARCKS protein was immunoprecipitated according to the method of Spizz & Blackshear (J Biol Chem 271:553, 1996) using monoclonal antibody 2F12 (a gift from the Blackshear laboratory).
as §1

[4] = test system: normal human bronchial epithelial (NHBE) cells; assay: Mucin secretion stimulated by PMA + 8-Br-cGMP, air-liquid interface culture, mucus ELISA; format: cell-based; conditions: 500nM, pre-incubated 15 min; PMA (100 nM) + 8-Br-cGMP (1µM) for 15 min
Description: as §2, with “Corporation. […]” for “Corporation.”
as §3

## dibutyryl cGMP
[1]
  constitutive PKG activity: increased

## O=c1c2nc(Br)n(C3OC4COP(=O)(S)OC4C3O)c2nc2[nH]c(-c3ccccc3)cn12 (centres unmarked) [Rp-8-Br-PET-cGMP]
[2]
  mucin secretion in cells stimulated by secretagogues: inhibit mucin secretion

## calphostin C
[2]
  mucin secretion in cells stimulated by secretagogues: inhibit mucin secretion
[3]; 500 nM
  phosphorylation of MARCKS by PMA: attenuated

## O=C1C(Nc2ccccc2)=CC(=O)c2ncccc21 [LY83585]
[2]
  mucin secretion in cells stimulated by secretagogues: inhibit mucin secretion

## C=C1[C@@H](O)[C@@H]2O[C@]3(CC[C@H](/C=C/[C@@H](C)[C@@H]4CC(C)=C[C@@]5(O[C@H](C[C@@](C)(O)C(=O)O)CC[C@H]5O)O4)O3)CC[C@H]2O[C@@H]1[C@@H](O)C[C@H](C)[C@H]1O[C@@]2(CCCCO2)CC[C@H]1C [okadaic acid]
[4]
  mucin hypersecretion induced by PMA + 8-Br-cGMP: blocks mucin hypersecretion
[2]; 500nM, pre-incubated 15 min, UTP (0.1 mM) for 2 hours
  mucin hypersecretion induced by UTP: blocks mucin hypersecretion
[2]
  mucin secretion in cells stimulated by secretagogues: inhibit mucin secretion
[3]; 500 nM
  reversal by 8-Br-cGMP of PMA-induced phosphorylation of MARCKS: inhibited this effect

## CCCCCCCCCCCCCC(=O)O[C@@H]1[C@@H](C)[C@@]2(O)[C@@H](C=C(CO)C[C@]3(O)C(=O)C(C)=C[C@@H]23)[C@@H]2C(C)(C)[C@]12OC(C)=O [PMA, phorbol 12-myristate 13-acetate]
[3]; PMA 100 nM, concentration of 4α-PMA not given
  phosphorylation of MARCKS: phosphorylated

## Nc1nc2c(nc(Br)n2[C@@H]2O[C@@H]3COP(=O)(O)O[C@H]3[C@H]2O)c(=O)[nH]1 [8-Br-cGMP, 8-bromo-cGMP]
[3]; 10 µM
  phosphorylation of MARCKS induced by PMA: reversed
